In patent publication US20150018237A1, “MEANS AND METHODS FOR ASSESSING BONE DISORDERS” (BASF SE, priority 2012, published 2015):
Like-named read-outs stand apart in the source and are kept apart here. Marks after values point to notes of the source that are not given here. Each block holds one molecule with its values, some of them ahead of it.

Columns and labels:
rats [1] = settings: rat, in vivo
Experimental: (§1) A group of each 5 male and female rats was dosed once daily with the indicated compounds (see Table 10, below for compounds, applied doses and administeration details) over 28 days.
(§2) Each dose group in the studies consisted of five rats per sex. Additional groups of each 5 male and female animals served as controls. Before starting the treatment period, animals, which were 62-64 days old when supplied, were acclimatized to the housing and environmental conditions for 7 days. All animals of the animal population were kept under the same constant temperature (20-24±3° C.) and the same constant humidity (30-70%). The animals of the animal population were fed ad libitum. The food to be used was essentially free of chemical or microbial contaminants. Drinking water was also offered ad libitum. Accordingly, the water was free of chemical and microbial contaminants as laid down in the European Drinking Water Directive 98/83/EG. The illumination period was 12 hours light followed by 12 hours darkness (12 hours light, from 6:00 to 18:00, and 12 hours darkness, from 18:00 to 6:00). The studies were performed in an AAALAC-approved laboratory in accordance with the German Animal Welfare Act and the European Council Directive 86/609/EE. The test system was arranged according to the OECD 407 guideline for the testing of chemicals for repeated dose 28-day oral toxicity study in rodents.
(§3) In the morning of day 7, 14, and 28, blood was taken from the retroorbital venous plexus from fasted anaesthetized animals. From each animal, 1 ml of blood was collected with EDTA as anticoagulant. The samples were centrifuged for generation of plasma. All plasma samples were covered with a N2 atmosphere and then stored at −80° C. until analysis.
(§4) For mass spectrometry-based metabolite profiling analyses plasma samples were extracted and a polar and a non-polar (lipid) fraction was obtained. For GC-MS analysis, the non-polar fraction was treated with methanol under acidic conditions to yield the fatty acid methyl esters. Both fractions were further derivatised with O-methyl-hydroxyamine hydrochloride and pyridine to convert Oxo-groups to O-methyloximes and subsequently with a silylating agent before analysis. In LC-MS analysis, both fractions were reconstituted in appropriate solvent mixtures. HPLC was performed by gradient elution on reversed phase separation columns. Mass spectrometric detection which allows target and high sensitivity MRM (Multiple Reaction Monitoring) profiling in parallel to a full screen analysis was applied as described in WO2003073464.
(§5) Steroids and their metabolites were measured by online SPE-LC-MS (Solid phase extraction-LC-MS).
(§6) Following comprehensive analytical validation steps, the data for each analyte were normalized against data from pool samples. These samples were run in parallel through the whole process to account for process variability. The significance of treatment group values specific for sex, treatment duration and metabolite was determined by comparing means of the treated groups to the means of the respective untreated control groups using WELCH-test and quantified with treatment ratios versus control and p-values.

rats [2] = test: Plasma metabolite profiling (GC-MS, LC-MS) in rats dosed once daily over 28 days, treatment ratios versus control
Experimental: as §1, §2, §3, §4, §5, §6

[3] = female rats, day 28, high dose, Table 1a up-regulation
[4] = female rats, day 28, high dose, Table 1b down-regulation
[5] = male rats, day 28, high dose, Table 1c up-regulation
[6] = male rats, day 28, high dose, Table 1d down-regulation

Molecule: O=C([O-])[O-].[Ca+2] [Calcium carbonate]
3-Hydroxybutyrate, plasma, ratio versus control (rats [1]): 1.09* | 4-Hydroxyphenylpyruvate, plasma, ratio versus control (rats [1]): 0.23* | 5-Oxoproline, plasma, ratio versus control (rats [1]): 0.87* | 16-Methylheptadecanoic acid, plasma, ratio versus control (rats [1]): 0.66* | 17-Methyloctadecanoic acid, plasma, ratio versus control (rats [1]): 0.92* | Alanine, plasma, ratio versus control (rats [1]): 0.79* | Coenzyme Q9, plasma, ratio versus control (rats [1]): 0.72* | Creatine, plasma, ratio versus control (rats [1]): 0.48* | Creatinine, plasma, ratio versus control (rats [1]): 0.43* | DAG (C18:1, C18:2), plasma, ratio versus control (rats [1]): 0.87* | Eicosaenoic acid (C20:1) No 02, plasma, ratio versus control (rats [1]): 1.3* | Glucose, plasma, ratio versus control (rats [1]): 0.93* | Glycerol, lipid fraction, plasma, ratio versus control (rats [1]): 0.66* | Heptadecanoic acid (C17:0), plasma, ratio versus control (rats [1]): 0.76* | Hippuric acid, plasma, ratio versus control (rats [1]): 0.71* | Lactate, plasma, ratio versus control (rats [1]): 0.95* | Linoleic acid (C18:cis[9, 12]2), plasma, ratio versus control (rats [1]): 0.67* | Linolenic acid (C18:cis[9, 12, 15]3), plasma, ratio versus control (rats [1]): 0.81* | Lysophosphatidylcholine (C17:0), plasma, ratio versus control (rats [1]): 0.82* | Malate, plasma, ratio versus control (rats [1]): 0.54* | Phenylalanine, plasma, ratio versus control (rats [1]): 0.93* | Phosphatidylcholine (C16:0, C16:0), plasma, ratio versus control (rats [1]): 1.06* | Phosphatidylcholine (C18:0, C20:4), plasma, ratio versus control (rats [1]): 1.02* | Pyruvate, plasma, ratio versus control (rats [1]): 0.77* | Sphingomyelin (d18:2, C16:0), plasma, ratio versus control (rats [1]): 1.11* | TAG (C18:1, C18:2), plasma, ratio versus control (rats [1]): 0.75* | TAG (C18:2, C18:2), plasma, ratio versus control (rats [1]): 0.74* | TAG (C18:2, C18:3), plasma, ratio versus control (rats [1]): 0.64* | TAG (DAG-Fragment), plasma, ratio versus control (rats [1]): 0.72* | TAG No 01, plasma, ratio versus control (rats [1]): 0.55* | TAG No 05, plasma, ratio versus control (rats [1]): 0.71* | TAG No 07, plasma, ratio versus control (rats [1]): 0.71* | TAG No 059, plasma, ratio versus control (rats [1]): 0.68* | Threonic acid, plasma, ratio versus control (rats [1]): 0.86* | Urea, plasma, ratio versus control (rats [1]): 1.15* | gamma-Linolenic acid (C18:cis[6, 9, 12]3), plasma, ratio versus control (rats [1]): 0.7*

Molecule: [O-][Cl+3]([O-])([O-])O [Sodium perchlorate]
Isoleucine, plasma, ratio versus control (rats [2]; male rats, day 7, high dose, Table 2a up-regulation): 0.97 | Isoleucine, plasma, ratio versus control (rats [2]; male rats, day 28, high dose, Table 2a up-regulation): 1.37 * | Isoleucine, plasma, ratio versus control (rats [2]; male rats, day 28, high dose, Table 2c up-regulation): 1.37*

3-Hydroxybutyrate, plasma, ratio versus control (rats [2]; [3]): 1.32* | Coenzyme Q10, plasma, ratio versus control (rats [2]; [3]): 1.03* | Eicosaenoic acid (C20:1) No 02, plasma, ratio versus control (rats [2]; [3]): 3.35* | Phosphate (inorganic and organic phosphates), plasma, ratio versus control (rats [2]; [3]): 1.31* | Phosphatidylcholine (C18:0, C20:4), plasma, ratio versus control (rats [2]; [3]): 1.05* | Sphingomyelin (d18:2, C16:0), plasma, ratio versus control (rats [2]; [3]): 1.11* | Urea, plasma, ratio versus control (rats [2]; [3]): 1.36* | myo-Inositol-2-phosphate, plasma, ratio versus control (rats [2]; [3]): 1.27* | 4-Hydroxyphenylpyruvate, plasma, ratio versus control (rats [2]; [4]): 0.63* | 18-Hydroxy-11-deoxycorticosterone, plasma, ratio versus control (rats [2]; [4]): 0.85* | Alanine, plasma, ratio versus control (rats [2]; [4]): 0.75* | Creatine, plasma, ratio versus control (rats [2]; [4]): 0.92* | Creatinine, plasma, ratio versus control (rats [2]; [4]): 0.58* | Glucose, plasma, ratio versus control (rats [2]; [4]): 0.95* | Lysophosphatidylcholine (C17:0), plasma, ratio versus control (rats [2]; [4]): 0.91* | Methionine, plasma, ratio versus control (rats [2]; [4]): 0.85* | Phenylalanine, plasma, ratio versus control (rats [2]; [4]): 0.88* | Threonic acid, plasma, ratio versus control (rats [2]; [4]): 0.75* | Glycine, plasma, ratio versus control (rats [2]; [5]): 0.86 | Phosphate (inorganic and organic phosphates), plasma, ratio versus control (rats [2]; [5]): 1.35* | Phosphatidylcholine (C16:0, C16:0), plasma, ratio versus control (rats [2]; [5]): 1.24* | myo-Inositol-2-phosphate, plasma, ratio versus control (rats [2]; [5]): 1.41* | 5-Oxoproline, plasma, ratio versus control (rats [2]; [6]): 0.94* | 16-Methylheptadecanoic acid, plasma, ratio versus control (rats [2]; [6]): 0.59* | 17-Methyloctadecanoic acid, plasma, ratio versus control (rats [2]; [6]): 0.65* | 18-Hydroxy-11-deoxycorticosterone, plasma, ratio versus control (rats [2]; [6]): 0.24* | Alanine, plasma, ratio versus control (rats [2]; [6]): 0.78* | Coenzyme Q9, plasma, ratio versus control (rats [2]; [6]): 0.83* | Coenzyme Q10, plasma, ratio versus control (rats [2]; [6]): 0.74* | DAG (C18:1, C18:2), plasma, ratio versus control (rats [2]; [6]): 0.63* | Glycerol, lipid fraction, plasma, ratio versus control (rats [2]; [6]): 0.86* | Glycine, plasma, ratio versus control (rats [2]; [6]): 0.86* | Heptadecanoic acid (C17:0), plasma, ratio versus control (rats [2]; [6]): 0.77* | Hippuric acid, plasma, ratio versus control (rats [2]; [6]): 0.48* | Lactate, plasma, ratio versus control (rats [2]; [6]): 0.7* | Linoleic acid (C18:cis[9, 12]2), plasma, ratio versus control (rats [2]; [6]): 0.82* | Linolenic acid (C18:cis[9, 12, 15]3), plasma, ratio versus control (rats [2]; [6]): 0.61* | Malate, plasma, ratio versus control (rats [2]; [6]): 0.8* | Methionine, plasma, ratio versus control (rats [2]; [6]): 0.88* | Pyruvate, plasma, ratio versus control (rats [2]; [6]): 0.76* | TAG (C18:1, C18:2), plasma, ratio versus control (rats [2]; [6]): 0.7* | TAG (C18:2, C18:2), plasma, ratio versus control (rats [2]; [6]): 0.6* | TAG (C18:2, C18:3), plasma, ratio versus control (rats [2]; [6]): 0.78* | TAG (DAG-Fragment), plasma, ratio versus control (rats [2]; [6]): 0.7* | TAG No 01, plasma, ratio versus control (rats [2]; [6]): 0.66* | TAG No 05, plasma, ratio versus control (rats [2]; [6]): 0.68* | TAG No 07, plasma, ratio versus control (rats [2]; [6]): 0.78* | TAG No 059, plasma, ratio versus control (rats [2]; [6]): 0.65* | gamma-Linolenic acid (C18:cis[6, 9, 12]3), plasma, ratio versus control (rats [2]; [6]): 0.98
Molecule: Calcitonin (Salmon)
